Key:
[1] = tested on: Plasmopara viticola; assay: Preventive activity (7 days) against Plasmopara viticola on vines; assay type: in vivo; conditions: leaf spray, inoculation 7 days after treatment, vine Merlot, reduction of diseased leaf area vs untreated (100=complete effectiveness)
Procedure: Leaves of vine plants, Merlot variety, grown in pots, in a conditioned environment (20±1° C., 70% R.H.) were treated by spraying both sides of the leaves with the products in question. 7 days after the treatment, the plants were inoculated with an aqueous suspension of Plasmopara viticola spores (200,000 spores/cc) by spraying both sides of the leaves with a compressed air gun. After remaining 24 hours in a humidity-saturated environment, at 21° C., the plants were transferred for the incubation period (7 days) in a conditioned environment with 70% R.H. and at 24° C. After this period of time, the external symptoms of the pathogen appeared and it was therefore possible to evaluate the intensity of the infection.

[2] = tested on: Puccinia Recondita; assay: Preventive fungicidal activity (5 days) against Puccinia recondita on wheat; assay type: in vivo; conditions: wheat Salgemma, inoculation 5 days after treatment; for P5 Activity NT: parts developed during the test (NT); for P5 Activity T: parts treated directly (T)
Procedure: Leaves of wheat plants of the […] variety, grown in pots in a conditioned environment at 20° C. and 70% of Relative Humidity (RH), were treated by spraying both sides of the leaves with the compound under examination dispersed in a hydroacetone solution at 20% by volume of acetone. […] After spraying, the plants were kept in a humidity-saturated environment at a temperature ranging from 18 to 24° C. for the incubation period of the fungus (1 day). At the end of this period, the plants were put in a greenhouse with a relative humidity (RH) of 70% and at a temperature of 18-24° C. for 14 days At the end of this period, the external symptoms of the pathogen appeared and it was therefore possible to proceed with the visual evaluation of the intensity of the infection, both on the parts treated directly with the products (T) and on the parts developed during the implementation of the test (NT).

[3] = tested on: Phakopsora pachyrhizi; assay: Preventive fungicidal activity (5 days) against Phakopsora pachyrhizi on soya; assay type: in vivo; conditions: for P5 Activity: soya Zora, inoculation 5 days after treatment; for control of the pathogen: dose of 125 ppm
[4] = tested on: Cercospora beticola; assay: Antifungal activity in vitro (growth inhibition, 96-well absorbance); assay type: cell-based; conditions: 20° C., 72 hours (96 or 120 when necessary)
[5] = tested on: Bipolaris sorokiniana; assay: as above; assay type: cell-based; conditions: 20° C., 72 hours (96 or 120 when necessary)
[6] = tested on: Parastagonospora nodorum; assay: as above; assay type: cell-based; conditions: 20° C., 72 hours (96 or 120 when necessary)
[7] = tested on: Phytophthora infestans; assay type: cell-based; conditions: for In vitro antifungal activity, 50% effective doses (EC50): Phytophthora infestans, 20° C., 72 hours (96 or 120 when necessary)
[8] = tested on: Sclerotinia sclerotiorum; assay: Antifungal activity in vitro (growth inhibition, 96-well absorbance); assay type: cell-based; conditions: 20° C., 72 hours (96 or 120 when necessary)
[9] = tested on: Venturia inaequalis; assay type: cell-based; conditions: for In vitro antifungal activity, 50% effective doses (EC50): Venturia inaequalis, 20° C., 72 hours (96 or 120 when necessary)
[10] = tested on: Zymoseptoria tritici; assay: Antifungal activity in vitro (growth inhibition, 96-well absorbance); assay type: cell-based; conditions: 20° C., 72 hours (96 or 120 when necessary)
[11] = tested on: Alternaria alternata; assay type: cell-based; conditions: 20° C., 72 hours (96 or 120 when necessary)
[12] = tested on: Magnaporthe oryzae; assay type: cell-based; conditions: for In vitro antifungal activity, 50% effective doses (EC50): Magnaporthe oryzae, 20° C., 72 hours (96 or 120 when necessary)
[13] = tested on: Pythium ultimum; assay type: cell-based; conditions: for In vitro antifungal activity, 50% effective doses (EC50): Pythium ultimum, 20° C., 72 hours (96 or 120 when necessary)

Row | SMILES | P7Activity ([1]; 30 ppm) | P7Activity ([1]; 125 ppm) | P5 Activity NT ([2]; 125 ppm) | P5 Activity T ([2]; 125 ppm) | P5 Activity NT ([2]; 250 ppm) | P5 Activity T ([2]; 250 ppm) | P5 Activity ([3]; 15 ppm) | P5 Activity ([3]; 30 ppm) | control of the pathogen [3] | In vitro antifungal activity, 50% effective doses (EC50) [4] | In vitro antifungal activity, 50% effective doses (EC50) [5] | In vitro antifungal activity, 50% effective doses (EC50) [6] | In vitro antifungal activity, 50% effective doses (EC50) [7] | In vitro antifungal activity, 50% effective doses (EC50) [8] | In vitro antifungal activity, 50% effective doses (EC50) [9] | In vitro antifungal activity, 50% effective doses (EC50) [10] | In vitro antifungal activity, 50% effective doses (EC50) [12] | further results
1 | CCCCCCCC(C)OC(=O)[C@H](C)NC(=O)c1cccc(NC=O)c1O (stereo partly drawn) [Compound 46, (2S)-2-(3-formamide-salicylamide)-propanoate of nonan-2-yl] | 100% | 100% | 90% | 98% | 99% | 100% | 98% | 99% | complete control | 1.34 mg/L | 2.68 mg/L | 0.001 mg/L | 0.04 mg/L | 0.02 mg/L | 0.25 mg/L | 0.02 mg/L | – | –
2 | C[C@H](NC(=O)c1cccc(NC=O)c1O)C(=O)O[C@@H](C)C(=O)OCc1ccccc1 [Compound 248] | – | – | – | – | – | – | – | – | – | – | – | 0.008 mg/L | 1.14 mg/L | – | – | 0.17 mg/L | – | –
3 | C[C@H](NC(=O)c1cccc(NC=O)c1O)C(=O)O[C@@H](C)C(c1ccc(F)cc1)c1ccc(F)cc1 [Compound 165, (2S)-2-(3-formamide-salicylamide) propanoate of (2S)-1,1-bis(4-fluorophenyl) propan-2-yl] | 100% | 100% | 88% | 95% | 100% | 100% | 99% | 100% | complete control | 0.19 mg/L | 0.11 mg/L | 0.01 mg/L | 0.05 mg/L | 0.01 mg/L | 0.18 mg/L | 0.007 mg/L | 0.2 mg/L | In vitro antifungal activity, 50% effective doses (EC50) [11]: 0.33 mg/L; in vitro antifungal activity (in words) ([12]; M. oryzae): active; in vitro antifungal activity (in words) ([7]; P. infestans): active; in vitro antifungal activity (in words) ([13]; P. ultimum): active; In vitro antifungal activity, 50% effective doses (EC50) [13]: 1.54 mg/L; in vitro antifungal activity (in words) ([9]; V. inaequalis): active
4 | CCCCC(CC)COC(=O)[C@H](C)OC(=O)[C@H](C)NC(=O)c1cccc(NC=O)c1O (stereo partly shown) [Compound 239] | – | – | – | – | – | – | – | – | – | – | – | 0.006 mg/L | 1.62 mg/L | 0.081 mg/L | – | 0.067 mg/L | 0.64 mg/L | In vitro antifungal activity, 50% effective doses (EC50) [13]: 2.78 mg/L
5 | C[C@H](NC(=O)c1ccccc1O)C(=O)O[C@@H](C)C(c1ccc(F)cc1)c1ccc(F)cc1 [CR2, reference compound] | – | – | – | – | – | – | – | – | – | 0.48 mg/L | 3.6 mg/L | 0.24 mg/L | – | 5.38 mg/L | – | 0.14 mg/L | – | In vitro antifungal activity, 50% effective doses (EC50) [11]: 7.57 mg/L
6 | COc1ccnc(C(=O)N[C@@H](C)C(=O)O[C@@H](C)C(c2ccc(F)cc2)c2ccc(F)cc2)c1OC(C)=O [CR1, Florypicoxamid, reference compound] | 10% | 40% | 90% | 99% | 100% | 100% | 100% | 100% | – | – | – | – | – | – | – | – | – | –
7 | CCCCOC(=O)[C@H](C)OC(=O)[C@H](C)NC(=O)c1cccc(NC=O)c1O [Compound 236] | – | – | – | – | – | – | – | – | – | 8.64 mg/L | 8.0 mg/L | 0.009 mg/L | 1.49 mg/L | 0.18 mg/L | 1.77 mg/L | 0.095 mg/L | 0.79 mg/L | –
8 | CCCCCCC[C@H](C)OC(=O)[C@H](C)NC(=O)c1cccc(NC=O)c1O [Compound 249] | 100% | 100% | 95% | 99% | 100% | 100% | 98% | 100% | complete control | – | – | – | – | – | – | – | – | –
9 | CC(C)C(=O)OCOc1c(NC=O)cccc1C(=O)N[C@@H](C)C(=O)O[C@@H](C)C(c1ccc(F)cc1)c1ccc(F)cc1 [Compound 156, (2S)-2-[3-formamide-2-(methoxy-(2-methyl)propanoate)-benzamide] of (2S)-1,1-bis(4-fluorophenyl)propan-2-yl] | 100% | 100% | 93% | 98% | 100% | 100% | 100% | 100% | complete control | – | – | – | – | – | – | – | – | –
